Laboratory results from patent US11576922B2, “CD73 inhibitors” (ORIC Pharmaceuticals, Inc., priority 2017, dated 2023).

target: T1, CD73 (Homo sapiens, UniProt P21589); experiment: Example A1: Biochemical Assay (CD73 inhibition, Malachite Green detection of AMP hydrolysis); settings: Biochemical IC50, CD73 0.3208 nM, AMP 15 μM, Tris-HCl pH 7.4, Malachite Green, absorbance 620 nm
T1 sequence (P21589 27-549): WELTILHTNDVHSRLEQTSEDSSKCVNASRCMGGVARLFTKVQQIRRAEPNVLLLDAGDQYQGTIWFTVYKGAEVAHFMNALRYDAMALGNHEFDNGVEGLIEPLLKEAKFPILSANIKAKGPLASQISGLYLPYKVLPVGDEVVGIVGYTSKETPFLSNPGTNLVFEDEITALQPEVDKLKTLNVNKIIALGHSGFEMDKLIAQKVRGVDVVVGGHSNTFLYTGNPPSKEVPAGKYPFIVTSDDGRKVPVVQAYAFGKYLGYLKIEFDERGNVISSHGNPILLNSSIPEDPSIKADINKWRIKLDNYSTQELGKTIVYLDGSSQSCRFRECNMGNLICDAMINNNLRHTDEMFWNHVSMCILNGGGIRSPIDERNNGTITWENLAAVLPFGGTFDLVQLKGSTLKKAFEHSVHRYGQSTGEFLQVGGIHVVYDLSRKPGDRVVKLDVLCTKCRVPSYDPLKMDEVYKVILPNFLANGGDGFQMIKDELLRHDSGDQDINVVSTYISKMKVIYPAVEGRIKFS
Protocol: Example A1: Biochemical Assay
Assay Reaction Conditions
• Assay Volume: 70 μl • Reaction Volume: 50 μl • CD73: 0.3208 nM • AMP: 15 μM • Assay Buffer: 2 5 mM Tris-HCL, pH 7.4, 0.01% Brij-35, 0.01% BSA, 5 mM MgCl2 Assay Procedure:
Made dose titration of testing compounds in assay buffer, 10 points ½ log titrations in duplicates starting at 100 μM.
Added 25 μl of CD73 to each well for a final concentration of […].
Incubated at RT for 15 min.
Added 25 μl of AMP to each well for a final concentration of 15 μM.
Incubated at RT for 10 min.
Added 10 μl of Malachite Green Reagent A, incubate at RT for 10 min.
Added 10 μl of Malachite Green Reagent B, incubate at RT for 45 min.
Read the Absorbance on Envision plate reader using excitation filter: Cy5 […].
The ability of the compounds disclosed herein to inhibit CD73 activity was quantified and the respective IC50 values were determined. Table 1 provides the biochemical IC50 values of compounds disclosed herein.

SMILES	IC50
O=P(O)(O)C[P@](=O)(OC[C@H]1O[C@@H](n2nnc3c(NCc4ccccc4Cl)nc(Cl)nc32)[C@H](O)[C@@H]1O)Oc1ccccc1 [Example 32, (((S)-(((2R,3S,4R,5R)-5-(5-chloro-7-((2-chlorobenzyl)amino)-3H-[1,2,3]triazolo[4,5-d]pyrimidin-3-yl)-3,4-dihydroxytetrahydrofuran-2-yl)methoxy)(phenoxy)phosphoryl)methyl) phosphonic acid]	> 1000 nM

same assay, conditions: CD73 0.3208 nM, AMP 15 μM, Tris-HCl pH 7.4, Malachite Green, absorbance 620 nm; read-out: Biochemical IC50

SMILES	IC50
C[C@H](Nc1nc(Cl)nc2c1nnn2[C@@H]1O[C@H](COP(=O)(O)CP(=O)(O)O)[C@@H](O)[C@H]1O)c1ccccc1Cl [Example 9, (((((2R,3S,4R,5R)-5-(5-chloro-7-(((S)-1-(2-chlorophenyl)ethyl)amino)-3H-[1,2,3]triazolo[4,5-d]pyrimidin-3-yl)-3,4-dihydroxytetrahydrofuran-2-yl)methoxy)(hydroxy)phosphoryl)methyl) phosphonic acid]	< 100 nM
O=P(O)(O)CP(=O)(O)OC[C@@H]1C[C@@H](O)[C@H](n2nnc3c(NCc4ccccc4Cl)nc(Cl)nc32)O1 [Example 23, (((((2S,4R,5R)-5-(5-chloro-7-((2-chlorobenzyl)amino)-3H-[1,2,3]triazolo[4,5-d]pyrimidin-3-yl)-4-hydroxytetrahydrofuran-2-yl)methoxy)(hydroxy)phosphoryl)methyl)phosphonic acid]	< 100 nM
COP(=O)(CP(=O)(O)O)OC[C@H]1O[C@@H](n2ncc3c(NCc4ccccc4Cl)nc(Cl)nc32)[C@H](O)[C@@H]1O (stereo partly drawn) [Example 49, (((((2R,3S,4R,5R)-5-(6-chloro-4-((2-chlorobenzyl)amino)-1H-pyrazolo[3,4-d]pyrimidin-1-yl)-3,4-dihydroxytetrahydrofuran-2-yl)methoxy)(methoxy)phosphoryl)methyl) phosphonic acid]	< 100 nM
O=P(O)(O)CP(=O)(O)OC[C@H]1O[C@@H](n2nnc3c(N4CCCC[C@@H]4c4ccccc4)nc(Cl)nc32)[C@H](O)[C@@H]1O [Example 10, (((((2R,3S,4R,5R)-5-(5-chloro-7-((R)-2-phenylpiperidin-1-yl)-3H-[1,2,3]triazolo[4,5-d]pyrimidin-3-yl)-3,4-dihydroxytetrahydrofuran-2-yl)methoxy)(hydroxy)phosphoryl)methyl) phosphonic acid]	100 to 1000 nM
O=P(O)(O)CP(=O)(O)OC[C@H]1O[C@@H](n2nnc3c(NCC4CC4)nc(Cl)nc32)[C@H](O)[C@@H]1O [Example 5, (((((2R,3S,4R,5R)-5-(5-chloro-7-((cyclopropylmethyl)amino)-3H-[1,2,3]triazolo[4,5-d]pyrimidin-3-yl)-3,4-dihydroxytetrahydrofuran-2-yl)methoxy)(hydroxy)phosphoryl)methyl) phosphonic acid]	100 to 1000 nM
CO[P@@](=O)(CP(=O)(O)O)OC[C@H]1O[C@@H](n2nnc3c(NCc4ccccc4Cl)nc(Cl)nc32)[C@H](O)[C@@H]1O [Example 28, (((S)-(((2R,3S,4R,5R)-5-(5-chloro-7-((2-chlorobenzyl)amino)-3H-[1,2,3]triazolo[4,5-d]pyrimidin-3-yl)-3,4-dihydroxytetrahydrofuran-2-yl)methoxy)(methoxy)phosphoryl)methyl)phosphonic acid]	100 to 1000 nM
O=P(O)(O)CP(=O)(O)OC[C@H]1O[C@@H](n2nnc3c(NCc4ccccc4Cl)nc(Cl)nc32)[C@H](O)[C@@H]1O [Example 6, (((((2R,3S,4R,5R)-5-(5-chloro-7-((2-chlorobenzyl)amino)-3H-[1,2,3]triazolo[4,5-d]pyrimidin-3-yl)-3,4-dihydroxytetrahydrofuran-2-yl)methoxy)(hydroxy)phosphoryl)methyl) phosphonic acid]	< 100 nM
O=P(O)(O)CP(=O)(O)OC[C@H]1O[C@@H](n2nnc3c(NC[C@H]4CCOC4)nc(Cl)nc32)[C@H](O)[C@@H]1O [Example 3, (((((2R,3S,4R,5R)-5-(5-chloro-7-((((R)-tetrahydrofuran-3-yl)methyl)amino)-3H-[1,2,3]triazolo[4,5-d]pyrimidin-3-yl)-3,4-dihydroxytetrahydrofuran-2-yl)methoxy)(hydroxy)phosphoryl)methyl) phosphonic acid]	100 to 1000 nM
COP(=O)(CP(=O)(O)O)OC[C@H]1O[C@@H](n2nnc3c(NCc4ccccc4Cl)nc(Cl)nc32)[C@H](O)[C@@H]1O (stereo partly drawn) [Example 26, (((((2R,3S,4R,5R)-5-(5-chloro-7-((2-chlorobenzyl)amino)-3H-[1,2,3]triazolo[4,5-d]pyrimidin-3-yl)-3,4-dihydroxytetrahydrofuran-2-yl)methoxy)(methoxy)phosphoryl)methyl) phosphonic acid]	100 to 1000 nM
Cc1nn([C@@H]2O[C@H](COP(=O)(O)CP(=O)(O)O)[C@@H](O)[C@H]2O)c2nc(Cl)nc(NCc3ccccc3Cl)c12 [Example 44, (((((2R,3S,4R,5R)-5-(6-chloro-4-((2-chlorobenzyl)amino)-3-methyl-1H-pyrazolo[3,4-d]pyrimidin-1-yl)-3,4-dihydroxytetrahydrofuran-2-yl)methoxy)(hydroxy)phosphoryl)methyl) phosphonic acid]	< 100 nM
CN(Cc1ccccc1)c1nc(Cl)nc2c1nnn2[C@@H]1O[C@H](COP(=O)(O)CP(=O)(O)O)[C@@H](O)[C@H]1O [Example 15, (((((2R,3S,4R,5R)-5-(7-(benzyl(methyl)amino)-5-chloro-3H-[1,2,3]triazolo[4,5-d]pyrimidin-3-yl)-3,4-dihydroxytetrahydrofuran-2-yl)methoxy)(hydroxy)phosphoryl)methyl) phosphonic acid]	< 100 nM
O=P(O)(O)CP(=O)(O)OC[C@H]1O[C@@H](n2nnc3c(N4CCC[C@H]4c4ccccc4)nc(Cl)nc32)[C@H](O)[C@@H]1O [Example 11, (((((2R,3S,4R,5R)-5-(5-chloro-7-((S)-2-phenylpyrrolidin-1-yl)-3H-[1,2,3]triazolo[4,5-d]pyrimidin-3-yl)-3,4-dihydroxytetrahydrofuran-2-yl)methoxy)(hydroxy)phosphoryl)methyl) phosphonic acid]	100 to 1000 nM
COP(=O)(CP(=O)(O)O)OC[C@H]1OC(n2nnc3c(NC4CCc5ccccc54)nc(Cl)nc32)[C@H](O)[C@@H]1O (stereo partly drawn) [Example 34, (((((2R,3S,4R,5S)-5-(5-chloro-7-(((S)-2,3-dihydro-1H-inden-1-yl)amino)-3H-[1,2,3]triazolo[4,5-d]pyrimidin-3-yl)-3,4-dihydroxytetrahydrofuran-2-yl)methoxy)(methoxy)phosphoryl)methyl) phosphonic acid]	100 to 1000 nM
CN(Cc1ccccc1)c1nc(Cl)nc2c1cnn2[C@@H]1O[C@H](COP(=O)(O)CP(=O)(O)O)C[C@H]1O [Example 47, (((((2S,4R,5R)-5-(4-(benzyl(methyl)amino)-6-chloro-1H-pyrazolo[3,4-d]pyrimidin-1-yl)-4-hydroxytetrahydrofuran-2-yl)methoxy)(hydroxy)phosphoryl)methyl) phosphonic acid]	< 100 nM
O=P(O)(O)CP(=O)(O)OC[C@H]1O[C@@H](n2nnc3c(NCc4ccc(Cl)cc4)nc(Cl)nc32)[C@H](O)[C@@H]1O [Example 7, (((((2R,3S,4R,5R)-5-(5-chloro-7-((4-chlorobenzyl)amino)-3H-[1,2,3]triazolo[4,5-d]pyrimidin-3-yl)-3,4-dihydroxytetrahydrofuran-2-yl)methoxy)(hydroxy)phosphoryl)methyl) phosphonic acid]	< 100 nM
O=P(O)(O)CP(=O)(OCc1ccccc1)OC[C@H]1O[C@@H](n2nnc3c(NCc4ccccc4Cl)nc(Cl)nc32)[C@H](O)[C@@H]1O (stereo partly drawn) [Example 29, (((benzyloxy)(((2R,3S,4R,5R)-5-(5-chloro-7-((2-chlorobenzyl)amino)-3H-[1,2,3]triazolo[4,5-d]pyrimidin-3-yl)-3,4-dihydroxytetrahydrofuran-2-yl)methoxy)phosphoryl)methyl)phosphonic acid]	< 100 nM
O=P(O)(O)CP(=O)(O)OC[C@H]1C[C@@H](n2nnc3c(NCc4ccccc4Cl)nc(Cl)nc32)[C@H](O)[C@@H]1O [Example 2, (((((1R,2R,3S,4R)-4-(5-chloro-7-((2-chlorobenzyl)amino)-3H-[1,2,3]triazolo[4,5-d]pyrimidin-3-yl)-2,3-dihydroxycyclopentyl)methoxy)(hydroxy)phosphoryl)methyl)phosphonic acid]	100 to 1000 nM
C[C@@]1(O)[C@@H](COP(=O)(O)CP(=O)(O)O)O[C@@H](n2ncc3c(NCc4ccccc4Cl)nc(Cl)nc32)[C@@H]1O [Example 40, (((((2R,3S,4R,5R)-5-(6-Chloro-4-((2-chlorobenzyl)amino)-1H-pyrazolo[3,4-d]pyrimidin-1-yl)-3,4-dihydroxy-3-methyltetrahydrofuran-2-yl)methoxy)(hydroxy)phosphoryl)methyl)phosphonic acid]	< 100 nM
